Target: T1, human GPR119 (hGPR119) (Homo sapiens, UniProt Q8TDV5)
T1 construct: expressed in transfected cells
T1 sequence (Q8TDV5 1-335): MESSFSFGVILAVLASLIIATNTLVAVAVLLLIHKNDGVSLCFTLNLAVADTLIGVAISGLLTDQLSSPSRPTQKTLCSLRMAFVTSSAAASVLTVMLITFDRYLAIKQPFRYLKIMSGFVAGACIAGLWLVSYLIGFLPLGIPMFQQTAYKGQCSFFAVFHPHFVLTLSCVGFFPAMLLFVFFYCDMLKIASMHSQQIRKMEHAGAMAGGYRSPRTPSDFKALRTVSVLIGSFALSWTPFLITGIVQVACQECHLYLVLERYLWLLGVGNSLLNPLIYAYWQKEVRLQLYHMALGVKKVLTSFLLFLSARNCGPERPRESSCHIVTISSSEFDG
Experiment: cAMP accumulation assay (Cisbio cAMP Gs dynamic HTRF kit) in CHO-K1 cells stably expressing human GPR119
Type: cell-based
Conditions: 4-parameter fit; for Emax: 1 h, % activity normalized to Max and Min controls; for EC50: 60 minutes at 37° C.
Protocol: CHO-K1 cells stably expressing human GPR119 (hGPR119) were prepared by transfection of a GPR119-carrying plasmid using Lipofectamine 2000 (following manufacturer instructions). A stable cell line was established using the limiting dilution method with geneticine selection. Assay-ready frozen (ARF) cells were prepared and used throughout the study.
The assay was performed in a 384-well plate format using the cAMP Gs dynamic assay kit from Cisbio. ARF cells expressing hGPR119 were thawed, washed and then resuspended in cAMP stimulation buffer at a cell density of 1.1×10^6 cells/mL. Cells were plated at a density of ˜10,000 cells/well (9 μL/well). Dose response curves for the tested compounds were prepared in a cAMP stimulation buffer, containing 0.1% Tween 80 at 4 fold the final concentration. The compounds were then transferred to the cell plates using BRAVO (3 μL/well) and the plates were incubated for 60 minutes at 37° C./5% CO2. Detection buffer (10 μL, prepared as described in the cAMP Gs dynamic kit) were added to each well, and the plates were incubated at ambient temperature for 1 hr.
RT-FRET was measured using a ClarioSTAR plate reader, calculating the ratio between emissions at 665 nm and 620 nm (HTRF ratio). The HTRF ratio for positive (Max) and negative (Min) controls were used to normalize HTRF data and generate values for % activity. EC50 and Max activity values were determined using a standard 4-parameter fit.

Row | Structure (SMILES) | Emax [%] | EC50 [µM]
1 | O=C(Cc1ccc(OCCCC2CCN(c3ncc(Cl)cn3)CC2)cc1F)N1CC2(CCCN2C(=O)CCCCS(=O)(=O)O)C1 [Example 18, 5-(2-(2-(4-(3-(1-(5-chloropyrimidin-2-yl)piperidin-4-yl)propoxy)-2-fluorophenyl)acetyl)-2,5-diazaspiro[3.4]octan-5-yl)-5-oxopentane-1-sulfonic acid] | 100 to 130 | ≤ 0.1
2 | O=C(Cc1ccc(OCCCC2CCN(c3ncc(Cl)cn3)CC2)cc1F)N1C[C@H]2CCN(C(=O)CCCCS(=O)(=O)O)[C@H]2C1 [Example 20, 5-((3aR,6aR)-5-(2-(4-(3-(1-(5-chloropyrimidin-2-yl)piperidin-4-yl)propoxy)-2-fluorophenyl)acetyl)hexahydropyrrolo[3,4-b]pyrrol-1(2H)-yl)-5-oxopentane-1-sulfonic acid] | 100 to 130 | ≤ 0.1
3 | CCc1cnc(N2CCC(CCCOc3ccc(CC(=O)N4CCN(C[C@H](O)[C@@H](O)[C@H](O)[C@H](O)CO)CC4)c(F)c3)CC2)nc1 [Example 92, 2-(4-(3-(1-(5-ethylpyrimidin-2-yl)piperidin-4-yl)propoxy)-2-fluorophenyl)-1-(4-((2S,3R,4R,5R)-2,3,4,5,6-pentahydroxyhexyl)piperazin-1-yl)ethan-1-one] | 100 to 130 | ≤ 0.1
4 | O=C(Cc1ccc(OCCCC2CCN(c3ncc(Cl)cn3)CC2)cc1F)N1CC2(CCN2C[C@H](O)[C@H](O)[C@H](O)CO)C1 [Example 32, 2-(4-(3-(1-(5-chloropyrimidin-2-yl)piperidin-4-yl)propoxy)-2-fluorophenyl)-1-(1-((2S,3S,4R)-2,3,4,5-tetrahydroxypentyl)-1,6-diazaspiro[3.3]heptan-6-yl)ethan-1-one] | 100 to 130 | ≤ 0.1
5 | COCc1cnc(N2CCC(CCCOc3cc(F)c(CC(=O)N4CCN(C[C@H](O)[C@@H](O)[C@H](O)[C@H](O)CO)CC4)c(F)c3)CC2)nc1 [Example 99, 2-(2,6-difluoro-4-(3-(1-(5-(methoxymethyl)pyrimidin-2-yl)piperidin-4-yl)propoxy)phenyl)-1-(4-((2S,3R,4R,5R)-2,3,4,5,6-pentahydroxyhexyl)piperazin-1-yl)ethan-1-one] | 100 to 130 | ≤ 0.1
6 | O=C(Cc1ccc(OCCCC2CCN(c3ncc(Cl)cn3)CC2)cc1F)N1C[C@@H]2C[C@H]1CN2C[C@H](O)[C@@H](O)[C@H](O)[C@H](O)CO [Example 55, 2-(4-(3-(1-(5-chloropyrimidin-2-yl)piperidin-4-yl)propoxy)-2-fluorophenyl)-1-((1S,4S)-5-((2S,3R,4R,5R)-2,3,4,5,6-pentahydroxyhexyl)-2,5-diazabicyclo[2.2.1]heptan-2-yl)ethan-1-one] | 100 to 130 | ≤ 0.1
7 | CC1(CCCCOc2ccc(CC(=O)N3CCN(C[C@H](O)[C@@H](O)[C@H](O)[C@H](O)CO)CC3)c(F)c2)CCN(c2ncc(Cl)cn2)CC1 [Example 107, 2-(4-(4-(1-(5-chloropyrimidin-2-yl)-4-methylpiperidin-4-yl)butoxy)-2-fluorophenyl)-1-(4-((2S,3R,4R,5R)-2,3,4,5,6-pentahydroxyhexyl)piperazin-1-yl)ethan-1-one] | 100 to 130 | 0.1 to 1
8 | O=C(Cc1ccc(OCCCC2CCN(c3ncc(Cl)cn3)CC2)cc1F)N1CCC2(CCN(C[C@H](O)[C@@H](O)[C@H](O)[C@H](O)CO)C2)C1 (stereo partly drawn) [Example 43, 2-(4-(3-(1-(5-chloropyrimidin-2-yl)piperidin-4-yl)propoxy)-2-fluorophenyl)-1-(7-((2S,3R,4R,5R)-2,3,4,5,6-pentahydroxyhexyl)-2,7-diazaspiro[4.4]nonan-2-yl)ethan-1-one] | 100 to 130 | ≤ 0.1
9 | COCc1cnc(N2CCC(CCCOc3ccc(CC(=O)N4CCN(C[C@H](O)[C@@H](O)[C@H](O)[C@H](O)CO)CC4)c(F)c3)CC2)nc1 [Example 98, 2-(2-fluoro-4-(3-(1-(5-(methoxymethyl)pyrimidin-2-yl)piperidin-4-yl)propoxy)phenyl)-1-(4-((2S,3R,4R,5R)-2,3,4,5,6-pentahydroxyhexyl)piperazin-1-yl)ethan-1-one] | 100 to 130 | 0.1 to 1
10 | O=C(Cc1ccc(OCCCC2CCN(c3ncc(Cl)cn3)CC2)cc1F)N1CC2(CCN2C(=O)CCCCS(=O)(=O)O)C1 [Example 5, 5-(6-(2-(4-(3-(1-(5-chloropyrimidin-2-yl)piperidin-4-yl)propoxy)-2-fluorophenyl)acetyl)-1,6-diazaspiro[3.3]heptan-1-yl)-5-oxopentane-1-sulfonic acid] | 100 to 130 | ≤ 0.1
11 | O=C(Cc1ccc(OCCCC2CCN(c3ncc(Cl)cn3)CC2)cc1F)N1C[C@H]2CCN(C[C@H](O)[C@H](O)[C@H](O)CO)[C@H]2C1 [Example 64, 2-(4-(3-(1-(5-chloropyrimidin-2-yl)piperidin-4-yl)propoxy)-2-fluorophenyl)-1-((3aR,6aR)-1-((2S,3S,4R)-2,3,4,5-tetrahydroxypentyl)hexahydropyrrolo[3,4-b]pyrrol-5(1H)-yl)ethan-1-one] | 100 to 130 | ≤ 0.1
12 | O=C(Cc1ccc(OCCC2CC(C3CCN(c4ncc(Cl)cn4)CC3)C2)cc1F)N1CCN(C[C@H](O)[C@@H](O)[C@H](O)[C@H](O)CO)CC1 (stereo partly drawn) [Example 115, 2-(4-(2-(3-(1-(5-chloropyrimidin-2-yl)piperidin-4-yl)cyclobutyl)ethoxy)-2-fluorophenyl)-1-(4-((2S,3R,4R,5R)-2,3,4,5,6-pentahydroxyhexyl)piperazin-1-yl)ethan-1-one] | 100 to 130 | 0.1 to 1
13 | O=C(Cc1ccc(OCCCC2CCN(c3ncc(Cl)cn3)CC2)cc1F)N1C[C@H]2C[C@@H]1CN2C[C@H](O)[C@@H](O)[C@H](O)[C@H](O)CO [Example 47, 2-(4-(3-(1-(5-chloropyrimidin-2-yl)piperidin-4-yl)propoxy)-2-fluorophenyl)-1-((1R,4R)-5-((2S,3R,4R,5R)-2,3,4,5,6-pentahydroxyhexyl)-2,5-diazabicyclo[2.2.1]heptan-2-yl)ethan-1-one] | 100 to 130 | ≤ 0.1
14 | O=C(Cc1ccc(OCCCC2CCN(c3ncc(Cl)cn3)CC2)cc1F)N1CCC2(CCCC2NC[C@H](O)[C@@H](O)[C@H](O)[C@H](O)CO)C1 (stereo in doubt) [Example 77, 2-(4-(3-(1-(5-chloropyrimidin-2-yl)piperidin-4-yl)propoxy)-2-fluorophenyl)-1-(6-(((2S,3R,4R,5R)-2,3,4,5,6-pentahydroxyhexyl)amino)-2-azaspiro[4.4]nonan-2-yl)ethan-1-one] | ≥ 130 | ≤ 0.1
15 | O=C(Cc1ccc(OCCCC2CCN(c3ncc(Cl)cn3)CC2)cc1F)N1CC2(CCCN2C[C@H](O)[C@H](O)[C@H](O)CO)C1 [Example 60, 2-(4-(3-(1-(5-chloropyrimidin-2-yl)piperidin-4-yl)propoxy)-2-fluorophenyl)-1-(5-((2S,3S,4R)-2,3,4,5-tetrahydroxypentyl)-2,5-diazaspiro[3.4]octan-2-yl)ethan-1-one] | ≥ 130 | ≤ 0.1
16 | O=C(Cc1ccc(OCCCC2CCN(c3ncc(Cl)cn3)CC2)cc1F)N1C[C@@H]2CCN(C[C@H](O)[C@@H](O)[C@H](O)[C@H](O)CO)[C@@H]2C1 [Example 35, 2-(4-(3-(1-(5-chloropyrimidin-2-yl)piperidin-4-yl)propoxy)-2-fluorophenyl)-1-((3aS,6aS)-1-((2S,3R,4R,5R)-2,3,4,5,6-pentahydroxyhexyl)hexahydropyrrolo[3,4-b]pyrrol-5(1H)-yl)ethan-1-one] | 100 to 130 | ≤ 0.1

Reference: US20240217983A1, “GPR119 AGONISTS” (Kallyope, Inc., priority 2021, published 2024)
